Data published in ChEMBL document CHEMBL1201862, “PubChem BioAssay data set” (2004).
Several values for one entry are separate records, joined by “and”; a condition that tells them apart may be missing. Equal values may be shown once. Activity calls are given as the source filed them.

How the values were obtained:
Mu-type opioid receptor = Mu-type opioid receptor (Homo sapiens, UniProt P35372); type: functional, cell-based;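 further: U2OS cells with beta-arrestin recruitment to OPRM1 by beta-gal complementation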
Chain of Mu-type opioid receptor (P35372 whole entry): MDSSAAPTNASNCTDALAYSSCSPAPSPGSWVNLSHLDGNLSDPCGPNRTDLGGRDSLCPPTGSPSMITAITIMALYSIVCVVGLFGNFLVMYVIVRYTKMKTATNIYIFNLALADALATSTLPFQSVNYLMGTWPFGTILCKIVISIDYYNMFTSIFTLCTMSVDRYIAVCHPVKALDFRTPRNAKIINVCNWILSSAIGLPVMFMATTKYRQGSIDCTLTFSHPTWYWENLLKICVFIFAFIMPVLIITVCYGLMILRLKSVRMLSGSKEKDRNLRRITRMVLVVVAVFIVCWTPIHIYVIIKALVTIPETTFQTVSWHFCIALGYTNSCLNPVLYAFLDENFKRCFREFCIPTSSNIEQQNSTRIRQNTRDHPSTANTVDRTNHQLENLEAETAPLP

[1] = biological target: 5-hydroxytryptamine receptor 2A (Mus musculus, UniProt P35363); type: functional, cell-based;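 further: CHO-K1 cells with tagged receptor and beta-arrestin; agonist potency measured as compound-induced activation of the receptor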
Chain of 5-hydroxytryptamine receptor 2A (P35363 whole entry): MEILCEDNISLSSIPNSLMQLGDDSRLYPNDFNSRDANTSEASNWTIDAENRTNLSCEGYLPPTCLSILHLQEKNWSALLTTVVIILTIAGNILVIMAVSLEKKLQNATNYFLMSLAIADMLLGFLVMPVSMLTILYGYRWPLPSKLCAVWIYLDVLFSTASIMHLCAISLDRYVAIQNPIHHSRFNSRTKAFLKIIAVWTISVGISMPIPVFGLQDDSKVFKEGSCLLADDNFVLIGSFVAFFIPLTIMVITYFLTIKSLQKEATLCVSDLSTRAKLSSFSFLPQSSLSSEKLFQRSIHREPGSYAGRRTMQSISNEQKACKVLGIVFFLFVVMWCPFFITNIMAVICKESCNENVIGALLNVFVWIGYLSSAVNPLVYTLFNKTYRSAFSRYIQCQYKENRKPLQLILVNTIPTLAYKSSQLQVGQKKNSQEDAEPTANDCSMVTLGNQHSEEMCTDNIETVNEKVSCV

Paired box protein Pax-8 = Paired box protein Pax-8 (Homo sapiens, UniProt Q06710); experiment: PAX8 transcriptional activity inhibition in RMG-I – RMG-I cells, luciferase, cherry-pick, dose response (AID 687027); type: functional, cell-based;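 further: luciferase reporter driven by Pax8 target thyroperoxidase promoter measured by SteadyGlo luminescence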
Chain of Paired box protein Pax-8 (Q06710 whole entry): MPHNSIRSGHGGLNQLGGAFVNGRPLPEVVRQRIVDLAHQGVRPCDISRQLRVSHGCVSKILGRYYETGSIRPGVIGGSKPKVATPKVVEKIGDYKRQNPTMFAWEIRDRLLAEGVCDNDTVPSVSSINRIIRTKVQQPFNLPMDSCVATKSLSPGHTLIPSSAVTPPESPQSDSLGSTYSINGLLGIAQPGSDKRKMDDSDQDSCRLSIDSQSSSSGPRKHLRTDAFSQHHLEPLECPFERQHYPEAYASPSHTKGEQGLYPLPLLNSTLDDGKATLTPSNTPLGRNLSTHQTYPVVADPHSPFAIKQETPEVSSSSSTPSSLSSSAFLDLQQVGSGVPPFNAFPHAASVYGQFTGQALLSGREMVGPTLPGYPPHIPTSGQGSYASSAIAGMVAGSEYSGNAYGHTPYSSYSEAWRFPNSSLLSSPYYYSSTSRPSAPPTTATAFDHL

[2] = CMV-driven luciferase expression suppression in HEK293 – cell-based, luminescence, dry powder, counter-screen for Pax8 inhibitor project, dose response (AID 743020); type: functional
[3] = viability loss in HepG2 hepatoma cells – cell-based, cherry-picks, set 5, cytotoxicity control, dose response (AID 1053118); type: functional
[4] = biological target: T1, Beta-2 adrenergic receptor (Homo sapiens, UniProt P07550); experiment: Dose response for HTS for Beta-2AR agonists via FAP method from Powderset1.; type: functional
T1 sequence (P07550 whole entry): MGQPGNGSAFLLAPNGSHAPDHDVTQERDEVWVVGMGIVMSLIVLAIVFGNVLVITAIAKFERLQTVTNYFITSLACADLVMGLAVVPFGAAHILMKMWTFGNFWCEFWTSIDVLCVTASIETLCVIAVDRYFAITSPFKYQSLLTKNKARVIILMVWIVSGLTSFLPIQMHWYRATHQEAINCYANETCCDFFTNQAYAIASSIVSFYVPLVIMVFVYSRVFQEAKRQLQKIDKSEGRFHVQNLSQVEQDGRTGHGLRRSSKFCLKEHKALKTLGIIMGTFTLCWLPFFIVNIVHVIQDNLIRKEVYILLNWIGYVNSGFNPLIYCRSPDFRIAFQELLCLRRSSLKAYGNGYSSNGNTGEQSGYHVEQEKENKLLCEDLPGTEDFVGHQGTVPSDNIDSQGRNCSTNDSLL

[5] = biological target: T1, Beta-2 adrenergic receptor; experiment: ADRB2 activation measured by internalization – cell-based, FAP fluorogen, flow cytometry, cherry pick 1, dose response (AID 588763); type: functional
[6] = biological target: Tyrosine-protein phosphatase non-receptor type 11 (Homo sapiens, UniProt Q06124); experiment: PTPN11 enzyme inhibitors – biochemical, selectivity assay for STEP inhibitor project, dose response (AID 602367); type: functional; conditions: read-out: IC50_Mean
Chain of Tyrosine-protein phosphatase non-receptor type 11 (Q06124 whole entry): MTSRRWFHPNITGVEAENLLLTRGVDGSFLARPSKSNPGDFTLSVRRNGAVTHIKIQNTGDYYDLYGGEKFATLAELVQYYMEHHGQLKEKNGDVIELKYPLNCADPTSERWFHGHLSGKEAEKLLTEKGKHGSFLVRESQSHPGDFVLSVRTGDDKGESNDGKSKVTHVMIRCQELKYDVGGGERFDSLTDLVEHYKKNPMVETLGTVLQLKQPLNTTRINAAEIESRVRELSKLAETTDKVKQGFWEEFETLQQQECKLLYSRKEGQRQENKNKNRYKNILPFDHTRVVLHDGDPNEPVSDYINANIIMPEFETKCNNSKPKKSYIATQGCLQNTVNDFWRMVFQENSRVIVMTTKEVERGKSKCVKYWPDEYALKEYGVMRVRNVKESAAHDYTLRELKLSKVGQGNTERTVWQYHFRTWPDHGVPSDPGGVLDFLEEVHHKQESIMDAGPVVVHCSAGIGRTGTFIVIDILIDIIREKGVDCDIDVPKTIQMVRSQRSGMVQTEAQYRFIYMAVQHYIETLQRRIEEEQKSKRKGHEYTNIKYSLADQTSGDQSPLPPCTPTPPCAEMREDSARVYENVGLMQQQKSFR

[7] = biological target: Tyrosine-protein phosphatase non-receptor type 5 (Homo sapiens, UniProt P54829); experiment: PTPN5 enzyme inhibition – biochemical, fluorescence intensity, uHTS hits, confirmation (AID 602372); type: functional; conditions: read-out: IC50_Mean
[8] = biological target: Dual specificity protein phosphatase 3 (Homo sapiens, UniProt P51452); experiment: VHR phosphatase inhibition, dose response, selectivity assay for STEP inhibitor project, biochemical (AID 602374); type: functional; conditions: read-out: IC50_Mean
Chain of Dual specificity protein phosphatase 3 (P51452 whole entry): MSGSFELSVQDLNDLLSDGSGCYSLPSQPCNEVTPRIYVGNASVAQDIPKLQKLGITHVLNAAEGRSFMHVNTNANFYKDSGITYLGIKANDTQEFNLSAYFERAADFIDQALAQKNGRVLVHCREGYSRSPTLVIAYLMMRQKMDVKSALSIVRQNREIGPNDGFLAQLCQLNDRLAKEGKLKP

[9] = biological target: T2, Tyrosine-protein phosphatase non-receptor type 22 (Homo sapiens, UniProt Q9Y2R2); experiment: lymphoid phosphatase LYP inhibitors – biochemical, selectivity assay for STEP inhibitor project, dose response (AID 624241); type: functional
T2 sequence (Q9Y2R2 whole entry): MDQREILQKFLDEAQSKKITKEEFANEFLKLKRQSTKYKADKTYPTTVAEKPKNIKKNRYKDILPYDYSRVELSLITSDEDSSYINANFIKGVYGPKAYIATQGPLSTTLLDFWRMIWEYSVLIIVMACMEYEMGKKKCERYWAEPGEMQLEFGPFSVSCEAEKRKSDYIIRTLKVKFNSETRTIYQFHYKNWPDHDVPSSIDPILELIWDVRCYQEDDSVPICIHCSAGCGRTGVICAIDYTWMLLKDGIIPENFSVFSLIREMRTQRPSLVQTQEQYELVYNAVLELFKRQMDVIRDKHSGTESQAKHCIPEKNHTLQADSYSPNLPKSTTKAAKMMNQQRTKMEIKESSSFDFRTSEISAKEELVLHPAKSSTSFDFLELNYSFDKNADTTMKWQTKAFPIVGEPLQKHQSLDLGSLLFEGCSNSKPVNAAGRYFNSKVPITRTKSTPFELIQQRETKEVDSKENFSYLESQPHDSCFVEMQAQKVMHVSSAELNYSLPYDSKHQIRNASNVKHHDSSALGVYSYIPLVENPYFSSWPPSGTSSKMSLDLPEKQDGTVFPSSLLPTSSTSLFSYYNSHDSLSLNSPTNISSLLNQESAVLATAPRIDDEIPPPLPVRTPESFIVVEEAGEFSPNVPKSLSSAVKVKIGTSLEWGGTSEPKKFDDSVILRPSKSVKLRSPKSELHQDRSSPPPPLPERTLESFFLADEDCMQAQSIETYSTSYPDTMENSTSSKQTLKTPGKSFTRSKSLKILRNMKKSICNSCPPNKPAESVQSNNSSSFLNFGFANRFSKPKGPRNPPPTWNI

Galanin receptor type 3 = Galanin receptor type 3 (Homo sapiens, UniProt O60755); experiment: Fluorescence-based cell-based primary high throughput dose response assay to identify antagonists of the Galanin Receptor 3 (GalR3).; type: functional
Chain of Galanin receptor type 3 (O60755 whole entry): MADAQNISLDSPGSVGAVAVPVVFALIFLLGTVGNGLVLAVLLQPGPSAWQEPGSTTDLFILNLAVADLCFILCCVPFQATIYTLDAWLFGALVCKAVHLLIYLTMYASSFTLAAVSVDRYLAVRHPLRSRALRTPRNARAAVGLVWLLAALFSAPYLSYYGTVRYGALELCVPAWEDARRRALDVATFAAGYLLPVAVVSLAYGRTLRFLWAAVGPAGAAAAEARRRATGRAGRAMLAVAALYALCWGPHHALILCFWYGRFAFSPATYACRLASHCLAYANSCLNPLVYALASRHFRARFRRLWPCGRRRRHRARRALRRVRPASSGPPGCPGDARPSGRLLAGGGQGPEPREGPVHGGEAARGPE

cells = type: functional, cell-based; conditions: HEK-CNG
[10] = general mammalian cell viability loss – inhibitor set, cherry-pick, set 2, cytotoxicity control for miR-122 modulator project, dose response (AID 720697); type: functional, cell-based
[11] = biological target: Broad substrate specificity ATP-binding cassette transporter ABCG2 (Homo sapiens, UniProt Q9UNQ0); experiment: blockers of JC-1 export by ABCG2 – Ig-MXP3 cells, flow cytometry, dose response (AID 1690); type: functional
Chain of Broad substrate specificity ATP-binding cassette transporter ABCG2 (Q9UNQ0 whole entry): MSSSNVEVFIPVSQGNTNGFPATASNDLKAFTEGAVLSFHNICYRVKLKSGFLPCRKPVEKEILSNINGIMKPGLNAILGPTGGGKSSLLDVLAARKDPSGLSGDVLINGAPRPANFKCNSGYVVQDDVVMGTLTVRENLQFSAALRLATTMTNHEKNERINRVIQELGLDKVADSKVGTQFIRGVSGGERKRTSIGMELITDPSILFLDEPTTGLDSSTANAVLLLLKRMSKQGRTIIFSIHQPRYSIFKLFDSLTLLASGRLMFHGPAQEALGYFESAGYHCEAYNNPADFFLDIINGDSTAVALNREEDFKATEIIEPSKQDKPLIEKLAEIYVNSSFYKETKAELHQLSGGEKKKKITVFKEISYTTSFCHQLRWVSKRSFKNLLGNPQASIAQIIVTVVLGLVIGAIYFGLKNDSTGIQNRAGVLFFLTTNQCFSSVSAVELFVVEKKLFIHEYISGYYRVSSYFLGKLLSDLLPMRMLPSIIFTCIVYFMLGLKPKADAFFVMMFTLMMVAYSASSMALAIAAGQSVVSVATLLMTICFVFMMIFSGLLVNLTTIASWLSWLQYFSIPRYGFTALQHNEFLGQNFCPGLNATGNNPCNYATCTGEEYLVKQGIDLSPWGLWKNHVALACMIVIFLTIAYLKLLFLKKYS

[12] = biological target: T3, Polyadenylate-binding protein 1 (Homo sapiens, UniProt P11940); experiment: MLLE binding blockers, Cy5 peptide tracer – biochemical, fluorescence polarization, Cy5-PAM2 peptide, secondary, miRNA deadenylation inhibitor project, dose response (AID 602260); type: functional; conditions: read-out: IC50_Mean
T3 sequence (P11940 whole entry, the tested form may be a part): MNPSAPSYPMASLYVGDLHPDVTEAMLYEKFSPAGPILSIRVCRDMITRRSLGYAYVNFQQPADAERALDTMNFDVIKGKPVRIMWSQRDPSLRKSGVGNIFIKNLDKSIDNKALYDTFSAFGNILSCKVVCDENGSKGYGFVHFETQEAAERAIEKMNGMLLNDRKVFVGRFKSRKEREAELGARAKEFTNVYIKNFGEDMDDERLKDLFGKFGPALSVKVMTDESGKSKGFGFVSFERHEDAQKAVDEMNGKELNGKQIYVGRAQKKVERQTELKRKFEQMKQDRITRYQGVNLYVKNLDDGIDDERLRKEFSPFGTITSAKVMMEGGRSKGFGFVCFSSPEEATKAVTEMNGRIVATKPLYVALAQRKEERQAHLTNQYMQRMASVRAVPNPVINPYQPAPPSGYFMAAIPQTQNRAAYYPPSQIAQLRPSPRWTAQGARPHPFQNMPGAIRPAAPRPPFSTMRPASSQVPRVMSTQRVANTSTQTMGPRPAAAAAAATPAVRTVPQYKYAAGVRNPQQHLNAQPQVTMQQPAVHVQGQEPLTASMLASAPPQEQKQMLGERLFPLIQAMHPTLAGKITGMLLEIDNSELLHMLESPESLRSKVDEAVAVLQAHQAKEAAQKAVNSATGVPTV

[13] = biological target: T3, Polyadenylate-binding protein 1; experiment: MLLE domain peptide-binding blockers, IC50 – biochemical, fluorescence polarization, FITC-PAM2 peptide, dose response (AID 602259); type: functional; conditions: read-out: IC50_Mean
[14] = biological target: Long-chain-fatty-acid--AMP ligase FadD28 (Mycobacterium tuberculosis, UniProt P9WQ59); experiment: Fluorescence polarization aasay to screen for inhibitors that compete for the binding of FadD28 to a bisubstrate Measured in Biochemical System Using Plate Reader - 2147-01_Inhibitor_Dose_CherryPick_Activity.; type: functional, Mycobacterium tuberculosis H37Rv
Chain of Long-chain-fatty-acid--AMP ligase FadD28 (P9WQ59 whole entry): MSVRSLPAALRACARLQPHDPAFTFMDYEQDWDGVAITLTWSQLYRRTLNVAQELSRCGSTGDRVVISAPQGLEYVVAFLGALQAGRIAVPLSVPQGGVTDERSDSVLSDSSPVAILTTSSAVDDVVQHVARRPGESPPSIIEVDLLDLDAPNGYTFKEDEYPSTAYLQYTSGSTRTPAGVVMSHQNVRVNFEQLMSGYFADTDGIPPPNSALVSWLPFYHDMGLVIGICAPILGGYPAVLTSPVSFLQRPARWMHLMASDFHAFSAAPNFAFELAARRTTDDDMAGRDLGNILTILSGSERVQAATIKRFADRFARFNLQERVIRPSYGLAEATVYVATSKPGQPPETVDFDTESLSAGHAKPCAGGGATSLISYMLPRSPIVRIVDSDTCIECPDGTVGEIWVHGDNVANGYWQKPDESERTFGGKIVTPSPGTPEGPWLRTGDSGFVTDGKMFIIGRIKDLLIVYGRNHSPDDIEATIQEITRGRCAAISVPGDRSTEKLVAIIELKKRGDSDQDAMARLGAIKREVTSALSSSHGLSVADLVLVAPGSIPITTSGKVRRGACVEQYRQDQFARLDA

[15] = biological target: Botulinum neurotoxin type F (Clostridium botulinum, UniProt P30996); experiment: High-throughput multiplex microsphere dose response for inhibitors of toxin protease, specifically Botulinum neurotoxin light chain F protease, compounds from Cherry Pick 02.; type: functional; conditions: read-out: EC50_MICROM

SMILES: Clc1ccc(CN2CCN(c3ncccn3)CC2)cc1Cl
- EC50 (Mu-type opioid receptor): 92.5 µM (inactive)
- EC50 [1]: 0.424 µM (active)

SMILES: Cc1ccc(S(=O)(=O)CCC(=O)c2ccc(F)cc2)cc1
- AC50 (Paired box protein Pax-8): 11.3 µM (active)
- AC50 [2]: 27.9 µM (active)

SMILES: Cc1ccc(N(CC(=O)NCc2ccco2)S(=O)(=O)c2ccccc2)cc1
- AC50 [3]: > 52 µM (inactive)

SMILES: Cc1ccc(S(=O)(=O)N(C)CC(=O)N2CCN(c3ccccn3)CC2)cc1
- EC50 [4]: 0.002 µM (active)
- EC50 [5]: 167 nM (active) and 60.7 nM (active)

SMILES: Cc1c(C)c2ccc(OCC(=O)Nc3ccc(S(N)(=O)=O)cc3)c(C)c2oc1=O
- IC50 [6]: 6.82 µM (active)
- IC50 [7]: 22.9 µM (inactive)
- IC50 [8]: 10.8 µM (active)
- IC50 [9]: 44.9 µM (inactive)

SMILES: Cc1nc(O)c(C#N)cc1-c1ccccc1
- IC50 (Galanin receptor type 3): 5.68 µM (active)
- EC50 (cells): > 29.9 µM (inactive)
- AC50 [10]: 2.43 µM (active)

SMILES: O=[N+]([O-])c1ccc(Nc2nc(Cl)nc(NCCO)n2)cc1
- EC50 [11]: 4.63 µM (active)

SMILES: COc1ccc(NC(=O)CSc2ccc([N+](=O)[O-])cc2)cc1S(=O)(=O)N1CCOCC1
- IC50 [12]: > 66 µM (inactive)
- IC50 [13]: > 66 µM (inactive)
- AC50 [14]: 24.7 µM (active)

SMILES: CN(CC(=O)NC1CCN(Cc2ccccc2)CC1)S(=O)(=O)c1ccc(Cl)cc1
- EC50 [15]: > 20 µM (inactive)
